In the supplement of paper PMC10307832:

Columns and labels:
Assay in all cases: relative viability (nuclei count vs DMSO), 5 days (fraction); higher = more cells survive
JQ1 = compound: Cc1sc2c(c1C)C(c1ccc(Cl)cc1)=N[C@@H](CC(=O)OC(C)(C)C)c1nnc(C)n1-2 [JQ1]
How it was run: (§1)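 Viability here means nuclei in treated wells divided by nuclei in vehicle wells, reported as the median across plates. Only plates with control CV below 25% and at least one doubling passed. Lung cancer cell lines in 1536-well plates were exposed to five √10-spaced library-drug doses for 5 days and counted from 4× Hoechst images in MetaXpress.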

CPI-613 = compound: O=C(O)CCCCC(CCSCc1ccccc1)SCc1ccccc1 [CPI-613]
How it was run: as §1

Cytarabine = compound: Nc1ccn([C@@H]2O[C@H](CO)[C@@H](O)[C@@H]2O)c(=O)n1 [Cytarabine]
How it was run: as §1

Pimozide = compound: O=c1[nH]c2ccccc2n1C1CCN(CCCC(c2ccc(F)cc2)c2ccc(F)cc2)CC1 [Pimozide]
How it was run: as §1

[1] = compound: Cc1cnc(-c2cnc(NCCNc3ccc(C#N)cn3)nc2-c2ccc(Cl)cc2Cl)[nH]1
How it was run: as §1

Tivozanib = compound: COc1cc2nccc(Oc3ccc(NC(=O)Nc4cc(C)on4)c(Cl)c3)c2cc1OC [Tivozanib]
How it was run: as §1

Docetaxel = compound: CC(=O)O[C@@]12CO[C@@H]1C[C@H](O)[C@@]1(C)C(=O)[C@H](O)C3=C(C)[C@@H](OC(=O)[C@H](O)[C@@H](NC(=O)OC(C)(C)C)c4ccccc4)C[C@@](O)([C@@H](OC(=O)c4ccccc4)[C@H]21)C3(C)C [Docetaxel]
How it was run: as §1

Cell Line | relative viability (JQ1; 0.04 µM) | relative viability (JQ1; 0.1265 µM) | relative viability (JQ1; 0.4 µM) | relative viability (JQ1; 1.265 µM) | relative viability (JQ1; 4 µM) | relative viability (CPI-613; 5 µM) | relative viability (CPI-613; 15.81 µM) | relative viability (CPI-613; 50 µM) | relative viability (CPI-613; 158.11 µM) | relative viability (CPI-613; 500 µM) | relative viability (Cytarabine; 0.005 µM) | relative viability (Cytarabine; 0.01581 µM) | relative viability (Cytarabine; 0.05 µM) | relative viability (Cytarabine; 0.1581 µM) | relative viability (Cytarabine; 0.5 µM) | relative viability (Pimozide; 0.08 µM) | relative viability (Pimozide; 0.253 µM) | relative viability (Pimozide; 0.8 µM) | relative viability (Pimozide; 2.53 µM) | relative viability (Pimozide; 8 µM) | relative viability ([1]; 0.08 µM) | relative viability ([1]; 0.8 µM) | relative viability ([1]; 2.53 µM) | relative viability (Tivozanib; 0.005 µM) | relative viability (Tivozanib; 0.01581 µM) | relative viability (Tivozanib; 0.05 µM) | relative viability (Tivozanib; 0.1581 µM) | relative viability (Tivozanib; 0.5 µM) | relative viability (Docetaxel; 0.0002 µM) | relative viability (Docetaxel; 0.000632 µM) | relative viability (Docetaxel; 0.002 µM) | relative viability (Docetaxel; 0.006325 µM) | relative viability (Docetaxel; 0.02 µM) | relative viability ([1]; 0.253 µM)
LC-2-ad | 0.996 | 0.462 | 0.545 | 0.31 | 0.286 | 0.876 | 0.924 | 0.968 | 0.392 | 0.029 | 0.832 | 0.856 | 0.778 | 0.487 | 0.296 | 0.942 | 0.894 | 0.82 | 0.974 | 0.897 | 1.03 | 0.824 | 0.982 | 0.975 | 0.995 | 0.928 | 0.815 | 0.569 | 0.653 | 0.46 | 0.328 | 0.282 | 0.202 | 
H3255 | 0.874 | 0.665 | 0.912 | 0.456 | 0.336 | 0.94 | 0.803 | 0.984 | 0.92 | 0.888 | 0.96 | 0.922 | 0.763 | 0.695 | 0.591 |  | 0.913 | 0.907 | 0.907 | 0.948 | 1.02 | 0.994 | 0.999 | 0.922 | 0.985 | 0.882 | 0.828 | 0.926 | 0.899 | 0.978 | 0.657 | 0.336 | 0.3 | 0.887
NCI-H2228 | 0.927 | 0.857 | 0.876 | 0.462 | 0.406 | 0.915 | 0.931 | 0.893 | 0.744 | 0.0258 | 0.5 | 0.432 | 0.428 | 0.163 | 0.141 | 1.07 | 1.11 | 0.868 | 0.805 | 0.543 | 1.03 | 1.01 | 0.864 | 0.897 | 0.866 | 0.933 | 0.965 | 0.989 | 0.749 | 0.341 | 0.2 | 0.199 | 0.144 | 0.887
NCI-H1563 | 0.898 | 0.785 | 0.778 | 0.648 | 0.661 | 1.05 | 0.957 | 0.996 | 0.531 | 0.307 | 0.936 | 0.974 | 0.971 | 0.835 | 0.771 | 0.952 | 1.03 | 0.93 | 0.869 | 0.867 | 1.03 | 0.934 | 1.09 | 0.958 | 1.05 | 0.975 | 0.95 | 1 | 0.881 | 0.974 | 1.08 | 0.744 | 0.593 | 0.999
NCI-H460 | 0.97 | 0.617 | 0.593 | 0.353 | 0.197 | 0.973 | 0.97 | 1 | 0.66 | 0.515 | 0.962 | 0.894 | 0.256 | 0.0513 | 0.0345 | 1.01 | 0.95 | 0.964 | 0.913 | 0.922 | 1 | 0.981 | 0.883 | 0.985 | 1.06 | 0.989 | 1.03 | 0.965 | 0.949 | 0.806 | 0.288 | 0.0373 | 0.0295 | 0.911
NCI-H1915 | 0.975 | 0.702 | 0.904 | 0.427 | 0.269 | 1.01 | 0.996 | 0.97 | 0.949 | 0.0528 | 0.916 | 0.916 | 0.854 | 0.609 | 0.503 | 0.972 | 0.919 | 0.631 | 0.928 | 0.925 | 1.02 | 0.973 | 0.919 | 0.959 | 0.971 | 0.984 | 0.896 | 0.75 | 0.986 | 0.943 | 0.326 | 0.262 | 0.16 | 
NCI-H1395 | 0.849 | 0.734 | 0.702 | 0.516 | 0.547 | 0.993 | 0.806 | 0.897 | 0.84 | 0.8 | 0.826 | 0.775 | 0.567 | 0.447 | 0.354 | 0.918 | 0.84 | 0.822 | 0.878 | 0.918 | 1.08 | 0.818 | 0.837 | 0.738 | 1.04 | 1 | 0.736 | 0.677 | 0.933 | 0.861 | 0.676 | 0.39 | 0.268 | 0.84
NCI-H1299 | 0.974 | 0.851 | 0.909 | 0.379 | 0.308 | 1 | 0.984 | 1 | 0.992 | 0.973 | 1.01 | 1.04 | 1.01 | 1.06 | 1.02 | 1.02 | 0.951 | 0.977 | 0.995 | 0.988 | 0.968 | 1 | 0.969 | 1.01 | 1.03 | 1.03 | 1.02 | 0.952 | 0.998 | 0.975 | 0.868 | 0.502 | 0.37 | 1.01
UMC-11 | 0.926 | 0.742 | 0.43 | 0.29 | 0.26 | 0.945 | 0.924 | 0.911 | 0.474 | 0.133 | 0.75 | 0.554 | 0.551 | 0.316 | 0.264 | 1.01 | 0.983 | 0.961 | 0.976 | 1.07 | 0.943 | 0.929 | 1.02 | 0.944 | 0.954 | 0.965 |  | 0.927 | 0.912 | 0.944 | 0.456 | 0.279 | 0.187 | 0.787
NCI-H596 | 1.06 | 0.923 | 0.747 | 0.412 | 0.286 | 0.956 | 0.902 | 1.04 | 0.781 | 0.0741 | 0.956 | 0.841 | 0.798 | 0.689 | 0.551 | 0.993 | 0.935 | 0.882 | 0.952 | 0.847 | 0.995 | 0.754 | 1.07 | 0.926 | 0.963 | 1.13 |  | 0.99 | 0.89 | 0.89 | 0.632 | 0.518 | 0.273 | 0.972
NCI-H1944 | 0.951 | 0.709 | 0.612 | 0.53 | 0.485 | 0.918 | 0.922 | 0.947 | 0.712 | 0.51 | 0.654 | 0.481 | 0.381 | 0.23 | 0.159 | 0.925 | 0.877 | 0.698 | 0.795 | 0.944 | 1.09 | 1.01 | 0.916 | 0.925 | 0.998 | 0.949 | 0.849 | 0.978 | 0.948 | 1 | 0.822 | 0.336 | 0.173 | 
NCI-H2009 | 0.96 | 0.645 | 0.574 | 0.297 | 0.313 | 0.995 | 0.939 | 0.923 | 0.24 | 0.0296 | 1.01 | 1.01 | 0.997 | 0.724 | 0.398 | 0.997 | 0.985 | 1.01 | 0.909 | 0.926 | 1.01 | 1.08 | 0.943 | 0.955 | 1 | 1.02 | 0.994 | 0.91 | 0.955 | 1 | 0.944 | 0.456 | 0.239 | 0.93
NCI-H3122 | 0.962 | 0.791 | 0.96 | 0.857 | 0.518 | 0.969 | 1.01 | 1.02 | 0.956 | 0.146 | 0.99 | 0.928 | 0.971 | 0.553 | 0.399 | 0.983 | 1.02 | 0.948 | 0.962 | 1.03 | 0.962 | 0.988 | 0.965 | 0.961 | 1.03 | 1.01 | 1.12 | 1.02 | 0.981 | 0.839 | 0.731 | 0.184 | 0.12 | 
RERF-LC-KJ | 0.985 | 1.01 | 0.967 | 0.624 | 0.423 | 0.978 | 0.883 | 1.02 | 0.891 | 0.865 | 0.869 | 0.907 | 0.77 | 0.567 | 0.435 | 0.959 | 0.887 | 0.867 | 0.869 | 0.792 | 1.1 | 0.89 | 1 | 0.951 | 0.939 | 1.06 | 0.935 | 0.969 | 0.94 | 0.79 | 0.335 | 0.218 | 0.173 | 0.906
HCC-366 | 1.05 |  | 1.08 | 0.693 | 0.325 | 1.02 | 1.04 | 1.09 | 0.413 | 0.0138 | 1.01 | 0.974 | 0.884 | 0.337 | 0.11 | 0.978 | 1.01 | 0.967 | 0.992 | 0.972 | 1.04 | 0.968 | 0.925 | 0.982 | 0.98 | 1.02 | 1.02 | 0.992 | 0.946 | 0.631 | 0.14 | 0.0335 | 0.03 | 0.928
NCI-H1355 | 0.963 | 0.951 | 0.917 | 0.629 | 0.535 | 0.963 | 0.95 | 0.949 | 0.735 | 0.0943 | 0.89 | 0.922 | 0.758 | 0.489 | 0.302 | 0.968 | 0.964 | 0.954 | 0.956 | 0.907 | 0.995 | 0.939 | 0.907 | 0.941 | 0.938 | 1.05 | 0.702 | 0.897 | 0.982 | 0.91 | 0.517 | 0.272 | 0.227 | 0.874
